Test results as given in article PMC5218480 (PLoS ONE, 2017).

Test system: MV-4-11 cells
Assay: Gene expression microarray analysis (Affymetrix PrimeView) and GSEA
Assay type: cell-based, human
Parameters: RFU PODN (11730768_x_at) / Fold change /veh PODN (11730768_x_at) / RFU LINC00158 (11744669_a_at) / Fold change /veh LINC00158 (11744669_a_at) / RFU DUSP10 (11751237_a_at) / Fold change /veh DUSP10 (11751237_a_at) / RFU ID3 (11757404_x_at) / Fold change /veh ID3 (11757404_x_at) / RFU PLEKHG5 (11737974_s_at) / Fold change /veh PLEKHG5 (11737974_s_at) / RFU LRRC4B (11730491_at) / Fold change /veh LRRC4B (11730491_at) / RFU GIMAP4 (11747438_a_at) / Fold change /veh GIMAP4 (11747438_a_at) / RFU KRT8 (11758183_x_at) / Fold change /veh KRT8 (11758183_x_at) / RFU CNN1 (11734310_a_at) / Fold change /veh CNN1 (11734310_a_at) / RFU VPS37D (11726825_at) / Fold change /veh VPS37D (11726825_at) / RFU C10orf10 (11716522_x_at) / Fold change /veh C10orf10 (11716522_x_at) / RFU KIR2DL2 /// KIR2DL4 /// KIR2DL5A /// KIR2DL5B /// KIR2DS1 /// KIR2DS2 /// KIR2DS3 /// KIR2DS4 /// KIR3DL3 /// KIR3DL3 /// KIR3DS1 (11738374_at) / Fold change /veh KIR2DL2 /// KIR2DL4 /// KIR2DL5A /// KIR2DL5B /// KIR2DS1 /// KIR2DS2 /// KIR2DS3 /// KIR2DS4 /// KIR3DL3 /// KIR3DL3 /// KIR3DS1 (11738374_at) / RFU C1QL1 (11718748_at) / Fold change /veh C1QL1 (11718748_at) / RFU TMPRSS4 (11747572_a_at) / Fold change /veh TMPRSS4 (11747572_a_at) / RFU HAMP (11756126_x_at) / Fold change /veh HAMP (11756126_x_at) / RFU RNFT2 (11725882_a_at) / Fold change /veh RNFT2 (11725882_a_at) / RFU NR4A2 (11747474_a_at) / Fold change /veh NR4A2 (11747474_a_at) / RFU ABCC12 (11746883_a_at) / Fold change /veh ABCC12 (11746883_a_at) / RFU TMEM136 (11760407_x_at) / Fold change /veh TMEM136 (11760407_x_at) / RFU CLDN22 /// WWC2 (11732394_at) / Fold change /veh CLDN22 /// WWC2 (11732394_at) / RFU HLA-DPB1 (11760878_x_at) / Fold change /veh HLA-DPB1 (11760878_x_at) / RFU SPINT1 (11716480_a_at) / Fold change /veh SPINT1 (11716480_a_at) / RFU GAP43 (11754022_s_at) / Fold change /veh GAP43 (11754022_s_at) / RFU A4GNT (11735810_at) / Fold change /veh A4GNT (11735810_at) / RFU PRB3 (11715151_x_at) / Fold change /veh PRB3 (11715151_x_at) / RFU TUBB4B (11761932_at) / Fold change /veh TUBB4B (11761932_at) / RFU CAPN14 (11732068_a_at) / Fold change /veh CAPN14 (11732068_a_at) / RFU TMCC2 (11721928_a_at) / Fold change /veh TMCC2 (11721928_a_at) / RFU IRGQ (11745062_a_at) / Fold change /veh IRGQ (11745062_a_at) / RFU FAM174B (11720279_a_at) / Fold change /veh FAM174B (11720279_a_at) / RFU TMPRSS4 (11748680_a_at) / Fold change /veh TMPRSS4 (11748680_a_at) / RFU FAM212B (11763350_a_at) / Fold change /veh FAM212B (11763350_a_at) / RFU PLEKHG5 (11743358_a_at) / Fold change /veh PLEKHG5 (11743358_a_at) / RFU ZSCAN30 (11745921_a_at) / Fold change /veh ZSCAN30 (11745921_a_at) / RFU CMKLR1 (11741424_a_at) / Fold change /veh CMKLR1 (11741424_a_at) / RFU LOC101060620 /// MAPK8IP1 (11723275_at) / Fold change /veh LOC101060620 /// MAPK8IP1 (11723275_at) / RFU SPTSSB (11747773_x_at) / Fold change /veh SPTSSB (11747773_x_at) / RFU PRSS12 (11739890_at) / Fold change /veh PRSS12 (11739890_at) / RFU BIN1 (11741810_x_at) / Fold change /veh BIN1 (11741810_x_at) / RFU WNT11 (11732464_a_at) / Fold change /veh WNT11 (11732464_a_at) / RFU C10orf10 (11716521_a_at) / Fold change /veh C10orf10 (11716521_a_at) / RFU C5orf56 (11738089_at) / Fold change /veh C5orf56 (11738089_at) / RFU CYB561 (11721691_x_at) / Fold change /veh CYB561 (11721691_x_at) / RFU ANKRD19P (11752326_a_at) / Fold change /veh ANKRD19P (11752326_a_at) / RFU OR2T12 /// OR2T33 /// OR2T8 (11738714_s_at) / Fold change /veh OR2T12 /// OR2T33 /// OR2T8 (11738714_s_at) / RFU VCAN (11748164_a_at) / Fold change /veh VCAN (11748164_a_at) / RFU JSRP1 (11732532_at) / Fold change /veh JSRP1 (11732532_at) / RFU KRTAP10-11 (11738290_x_at) / Fold change /veh KRTAP10-11 (11738290_x_at) / RFU MYO3A (11730013_a_at) / Fold change /veh MYO3A (11730013_a_at) / RFU EBF3 (11725865_a_at) / Fold change /veh EBF3 (11725865_a_at) / RFU CAMK2N1 (11719241_x_at) / Fold change /veh CAMK2N1 (11719241_x_at) / RFU C5orf56 (11738088_a_at) / Fold change /veh C5orf56 (11738088_a_at) / RFU OLFML3 (11715873_a_at) / Fold change /veh OLFML3 (11715873_a_at) / RFU LOC100653217 /// NTM (11731650_a_at) / Fold change /veh LOC100653217 /// NTM (11731650_a_at) / RFU MAPK11 (11762145_a_at) / Fold change /veh MAPK11 (11762145_a_at) / RFU FIZ1 (11724087_x_at) / Fold change /veh FIZ1 (11724087_x_at) / RFU OASL (11726364_x_at) / Fold change /veh OASL (11726364_x_at) / RFU SOX15 (11748057_x_at) / Fold change /veh SOX15 (11748057_x_at) / RFU CD79A (11719716_a_at) / Fold change /veh CD79A (11719716_a_at) / RFU HIST1H1D (11736915_at) / Fold change /veh HIST1H1D (11736915_at) / RFU CASKIN2 (11723855_a_at) / Fold change /veh CASKIN2 (11723855_a_at) / RFU LOC730098 (11760151_x_at) / Fold change /veh LOC730098 (11760151_x_at) / RFU OR4N2 (11742367_at) / Fold change /veh OR4N2 (11742367_at) / RFU PRRT2 (11749266_a_at) / Fold change /veh PRRT2 (11749266_a_at) / RFU SNX32 (11753110_a_at) / Fold change /veh SNX32 (11753110_a_at) / RFU CDHR5 (11726645_a_at) / Fold change /veh CDHR5 (11726645_a_at) / RFU RCAN1 (11760418_a_at) / Fold change /veh RCAN1 (11760418_a_at) / RFU FAM167A (11723789_a_at) / Fold change /veh FAM167A (11723789_a_at) / RFU FAM26E (11764081_at) / Fold change /veh FAM26E (11764081_at) / RFU ISYNA1 (11749810_s_at) / Fold change /veh ISYNA1 (11749810_s_at) / RFU ACY1 (11761880_at) / Fold change /veh ACY1 (11761880_at) / RFU 11764098_at / Fold change /veh 11764098_at / RFU SAMD14 (11745864_x_at) / Fold change /veh SAMD14 (11745864_x_at) / RFU NPB (11741838_a_at) / Fold change /veh NPB (11741838_a_at) / RFU TMPRSS6 (11731388_a_at) / Fold change /veh TMPRSS6 (11731388_a_at) / RFU KRTAP10-2 (11738614_at) / Fold change /veh KRTAP10-2 (11738614_at) / RFU ARHGAP8 /// PRR5-ARHGAP8 (11727945_x_at) / Fold change /veh ARHGAP8 /// PRR5-ARHGAP8 (11727945_x_at) / RFU KRTAP5-7 /// NADSYN1 (11734609_at) / Fold change /veh KRTAP5-7 /// NADSYN1 (11734609_at) / RFU RASL12 (11751679_a_at) / Fold change /veh RASL12 (11751679_a_at) / RFU CDKN2B (11736163_a_at) / Fold change /veh CDKN2B (11736163_a_at) / RFU PRF1 (11729649_at) / Fold change /veh PRF1 (11729649_at) / RFU, ZNF638 /// ZNF638-IT1 / Fold change vs veh, ZNF638 /// ZNF638-IT1 / RFU, PANK3 / Fold change vs veh, PANK3 / RFU, SH3YL1 / Fold change vs veh, SH3YL1 / RFU, ZEB2 / Fold change vs veh, ZEB2 / RFU, NRIP1 / Fold change vs veh, NRIP1 / RFU, PTTG1IP / Fold change vs veh, PTTG1IP / RFU, CAPN2 / Fold change vs veh, CAPN2 / RFU, MED14 / Fold change vs veh, MED14 / RFU, SNORA58 / Fold change vs veh, SNORA58 / RFU, C1orf63 / Fold change vs veh, C1orf63 / RFU, LRRFIP1 / Fold change vs veh, LRRFIP1 / RFU, NDUFAF7 / Fold change vs veh, NDUFAF7 / RFU, SLC12A2 / Fold change vs veh, SLC12A2 / RFU, IBTK / Fold change vs veh, IBTK / RFU, ESF1 / Fold change vs veh, ESF1 / Fold change vs veh, TMEM50B / RFU, TAOK1 / Fold change vs veh, TAOK1 / RFU, ACBD3 / Fold change vs veh, ACBD3 / RFU, TMA16 / Fold change vs veh, TMA16 / RFU, RWDD3 / Fold change vs veh, RWDD3 / RFU, BCAT1 / Fold change vs veh, BCAT1 / RFU, EDEM3 / Fold change vs veh, EDEM3 / RFU, TMEM33 / Fold change vs veh, TMEM33 / RFU, WDR75 / Fold change vs veh, WDR75 / RFU, AHCTF1 / Fold change vs veh, AHCTF1 / RFU, TFRC / Fold change vs veh, TFRC / RFU, ZDHHC17 / Fold change vs veh, ZDHHC17 / RFU, NOM1 / Fold change vs veh, NOM1 / RFU, ARL8B / Fold change vs veh, ARL8B / RFU, ZBTB11 / Fold change vs veh, ZBTB11 / RFU, TAMM41 / Fold change vs veh, TAMM41 / RFU, KIAA1704 /// LOC100996395 / Fold change vs veh, KIAA1704 /// LOC100996395 / RFU, ING1 / Fold change vs veh, ING1 / RFU, TRMT61B / Fold change vs veh, TRMT61B / RFU, FUBP3 / Fold change vs veh, FUBP3 / RFU, TP53 / Fold change vs veh, TP53 / RFU, TNKS2 / Fold change vs veh, TNKS2 / RFU, ZFP14 / Fold change vs veh, ZFP14 / RFU, ACTR2 / Fold change vs veh, ACTR2 / RFU, PPP3R1 / Fold change vs veh, PPP3R1 / RFU, PIK3R1 / Fold change vs veh, PIK3R1 / RFU, HNRNPA1 / Fold change vs veh, HNRNPA1 / RFU, RNF170 / Fold change vs veh, RNF170 / RFU, ZNF28 / Fold change vs veh, ZNF28 / RFU, RNGTT / Fold change vs veh, RNGTT / RFU, OGT / Fold change vs veh, OGT / RFU, BRD1 / Fold change vs veh, BRD1 / RFU, MARS / Fold change vs veh, MARS / RFU, ZNF655 / Fold change vs veh, ZNF655 / RFU, FAHD1 / Fold change vs veh, FAHD1 / RFU, BDP1 / Fold change vs veh, BDP1 / RFU, LRRCC1 / Fold change vs veh, LRRCC1 / RFU, ARID1A / Fold change vs veh, ARID1A / RFU, ZNF146 / Fold change vs veh, ZNF146 / RFU, ZNF330 / Fold change vs veh, ZNF330 / RFU, GPN3 / Fold change vs veh, GPN3 / RFU, C9orf123 / Fold change vs veh, C9orf123 / RFU, N4BP2L2 / Fold change vs veh, N4BP2L2 / RFU, ARFIP1 / Fold change vs veh, ARFIP1 / RFU, FAM179B / Fold change vs veh, FAM179B / RFU, BCL10 / Fold change vs veh, BCL10 / RFU, UHRF1BP1L / Fold change vs veh, UHRF1BP1L / RFU, BET1 / Fold change vs veh, BET1 / RFU, CNOT2 / Fold change vs veh, CNOT2 / RFU, ZNF268 / Fold change vs veh, ZNF268 / Fold change vs veh, ZNF507 / RFU, DGCR2 / Fold change vs veh, DGCR2 / RFU, WDSUB1 / Fold change vs veh, WDSUB1 / Fold change vs veh, HSP90B1 /// MIR3652 / RFU, ADSS / Fold change vs veh, ADSS / RFU, GK / Fold change vs veh, GK / RFU, ZNF148 / Fold change vs veh, ZNF148 / RFU, TAF9 / Fold change vs veh, TAF9 / RFU, SLC1A5 / Fold change vs veh, SLC1A5 / RFU, SLMO2 / Fold change vs veh, SLMO2 / RFU, ABCC4 / Fold change vs veh, ABCC4 / RFU, LOC101060439 /// RAP1B / Fold change vs veh, LOC101060439 /// RAP1B / RFU, RFX7 / Fold change vs veh, RFX7 / RFU, GTPBP10 / Fold change vs veh, GTPBP10 / RFU, CNEP1R1 / Fold change vs veh, CNEP1R1 / RFU, BIVM-ERCC5 /// ERCC5 / Fold change vs veh, BIVM-ERCC5 /// ERCC5 / RFU, ILF3 / Fold change vs veh, ILF3 / RFU 11762660_at / Fold change /veh 11762660_at / RFU VCAN (11757783_s_at) / Fold change /veh VCAN (11757783_s_at) / RFU DDX43 (11728927_at) / Fold change /veh DDX43 (11728927_at) / RFU KRT8 (11758188_x_at) / Fold change /veh KRT8 (11758188_x_at) / RFU NKD1 (11759106_at) / Fold change /veh NKD1 (11759106_at) / RFU SRD5A1 (11742802_a_at) / Fold change /veh SRD5A1 (11742802_a_at) / RFU TPSAB1 /// TPSB2 (11721975_s_at) / Fold change /veh TPSAB1 /// TPSB2 (11721975_s_at) / RFU GSTM3 (11746129_a_at) / Fold change /veh GSTM3 (11746129_a_at) / RFU IL23R (11737362_x_at) / Fold change /veh IL23R (11737362_x_at) / RFU TMEM51 (11727254_a_at) / Fold change /veh TMEM51 (11727254_a_at) / RFU PIWIL2 (11732686_x_at) / Fold change /veh PIWIL2 (11732686_x_at) / RFU ORM1 (11744905_x_at) / Fold change /veh ORM1 (11744905_x_at) / RFU CCDC152 (11743942_at) / Fold change /veh CCDC152 (11743942_at) / RFU ECM1 (11717891_a_at) / Fold change /veh ECM1 (11717891_a_at) / RFU IL23R (11748794_a_at) / Fold change /veh IL23R (11748794_a_at) / RFU TNFAIP8L3 (11732012_x_at) / Fold change /veh TNFAIP8L3 (11732012_x_at) / RFU MBOAT4 (11741988_at) / Fold change /veh MBOAT4 (11741988_at) / RFU 11764193_at / Fold change /veh 11764193_at / RFU TMEM53 (11763286_at) / Fold change /veh TMEM53 (11763286_at) / RFU MAGEB2 (11727129_at) / Fold change /veh MAGEB2 (11727129_at) / RFU TMEM200A (11744735_a_at) / Fold change /veh TMEM200A (11744735_a_at) / RFU CCDC152 (11751479_a_at) / Fold change /veh CCDC152 (11751479_a_at) / RFU FAM211A (11726209_a_at) / Fold change /veh FAM211A (11726209_a_at) / RFU RGS16 (11746705_a_at) / Fold change /veh RGS16 (11746705_a_at) / RFU VCAN (11755009_s_at) / Fold change /veh VCAN (11755009_s_at) / RFU RHOB (11743442_s_at) / Fold change /veh RHOB (11743442_s_at) / RFU RGS16 (11720943_a_at) / Fold change /veh RGS16 (11720943_a_at) / RFU RGS16 (11720944_at) / Fold change /veh RGS16 (11720944_at) / RFU, VPS4B / Fold change vs veh, VPS4B / RFU, CREB1 / Fold change vs veh, CREB1 / RFU, DNAJC13 / Fold change vs veh, DNAJC13 / RFU, GNAQ / Fold change vs veh, GNAQ / RFU, CDK5R1 / Fold change vs veh, CDK5R1 / RFU, ZRANB3 / Fold change vs veh, ZRANB3 / RFU, CUL4A / Fold change vs veh, CUL4A / RFU, CCNY / Fold change vs veh, CCNY / RFU, UFL1 / Fold change vs veh, UFL1 / RFU, COG3 / Fold change vs veh, COG3 / RFU, DIAPH2 / Fold change vs veh, DIAPH2 / RFU, SKA2 / Fold change vs veh, SKA2 / RFU, AFF3 / Fold change vs veh, AFF3 / RFU, LMF1 / Fold change vs veh, LMF1 / RFU, IPO11 / Fold change vs veh, IPO11 / RFU, DFFB / Fold change vs veh, DFFB / RFU, FOXP1 / Fold change vs veh, FOXP1 / RFU, CARD8 / Fold change vs veh, CARD8 / RFU, STRN3 / Fold change vs veh, STRN3 / RFU, ADK / Fold change vs veh, ADK / RFU, RASSF2 / Fold change vs veh, RASSF2 / RFU, WIPF1 / Fold change vs veh, WIPF1 / RFU, LARP1B / Fold change vs veh, LARP1B / RFU, RASA1 / Fold change vs veh, RASA1 / RFU, RB1 / Fold change vs veh, RB1 / RFU, PPFIA1 / Fold change vs veh, PPFIA1 / RFU, MAT2A / Fold change vs veh, MAT2A / RFU, CCT5 / Fold change vs veh, CCT5 / RFU, WDR92 / Fold change vs veh, WDR92 / RFU, CUX1 / Fold change vs veh, CUX1 / RFU, TTC7A / Fold change vs veh, TTC7A / RFU, TMEM135 / Fold change vs veh, TMEM135 / RFU, DEPTOR / Fold change vs veh, DEPTOR / RFU, CPM / Fold change vs veh, CPM / RFU, DNAJB6 / Fold change vs veh, DNAJB6 / RFU, CACNA2D3 / Fold change vs veh, CACNA2D3 / RFU, DTX4 / Fold change vs veh, DTX4 / RFU, TFCP2 / Fold change vs veh, TFCP2 / RFU, GMCL1 /// GMCL1P1 / Fold change vs veh, GMCL1 /// GMCL1P1 / RFU, AEBP2 / Fold change vs veh, AEBP2 / RFU, SNHG1 /// SNORD22 /// SNORD25 /// SNORD26 /// SNORD27 /// SNORD28 /// SNORD29 /// SNORD31 / Fold change vs veh, SNHG1 /// SNORD22 /// SNORD25 /// SNORD26 /// SNORD27 /// SNORD28 /// SNORD29 /// SNORD31 / Fold change (Aza/veh), C12orf56 (ProbeSet 11735607_a_at) / Fold change (ACY-1035/veh), C12orf56 (ProbeSet 11735607_a_at) / Fold change (Aza/veh), FGFR1OP (ProbeSet 11751329_s_at) / Fold change (ACY-1035/veh), FGFR1OP (ProbeSet 11751329_s_at) / Fold change (Aza/veh), VPS36 (ProbeSet 11739960_a_at) / Fold change (ACY-1035/veh), VPS36 (ProbeSet 11739960_a_at) / RFU SYPL1 (11715823_x_at) / Fold change /veh SYPL1 (11715823_x_at) / RFU IGFBP7 (11715501_s_at) / Fold change /veh IGFBP7 (11715501_s_at) / RFU REEP3 (11722064_at) / Fold change /veh REEP3 (11722064_at) / RFU IGLL1 (11728026_x_at) / Fold change /veh IGLL1 (11728026_x_at): dose or concentration left out as unconfirmed
Conditions: MV-4-11 cells, 48 hours

Nc1ccc(-c2cccs2)cc1NC(=O)c1ccc2c(c1)cc(C1CC1)n2CCN1CCOCC1 [ACY-1035]
RFU GIMAP4 (11747438_a_at): 6.21 RFU
